Experimental data: patent US11780901B2, “Analogues of parathyroid hormone (1-34) that function as agonists of the parathyroid hormone receptor-1 and display modified activity profiles” (Wisconsin Alumni Research Foundation, priority 2013, dated 2023)
Read-outs that look alike come from different tables or passages of the source. Residues, ends and D or L forms follow the SMILES beside them. *: point of attachment. X11 = NC[C@H](CO)C(=O)*

Target: T1, PTHR1 (Homo sapiens, UniProt Q03431)
T1 sequence (Q03431 27-593): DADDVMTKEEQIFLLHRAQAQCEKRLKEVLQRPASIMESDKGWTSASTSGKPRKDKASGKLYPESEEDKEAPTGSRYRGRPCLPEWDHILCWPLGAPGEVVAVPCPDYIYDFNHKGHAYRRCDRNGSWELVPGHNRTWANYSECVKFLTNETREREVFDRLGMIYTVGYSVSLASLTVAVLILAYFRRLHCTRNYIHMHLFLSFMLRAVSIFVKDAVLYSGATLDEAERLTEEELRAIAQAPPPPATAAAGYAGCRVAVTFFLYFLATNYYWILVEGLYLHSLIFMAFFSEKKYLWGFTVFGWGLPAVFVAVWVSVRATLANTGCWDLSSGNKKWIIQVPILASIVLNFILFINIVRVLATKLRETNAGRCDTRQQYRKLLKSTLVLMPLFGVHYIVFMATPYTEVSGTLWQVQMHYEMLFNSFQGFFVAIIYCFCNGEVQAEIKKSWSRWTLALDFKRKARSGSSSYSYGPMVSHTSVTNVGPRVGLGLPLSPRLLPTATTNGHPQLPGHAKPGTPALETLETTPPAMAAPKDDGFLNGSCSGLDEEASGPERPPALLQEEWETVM
Experiment: PTHR1 activation, cAMP production (GloSensor) in HEK293 cells
Type: cell-based
Parameters: expressed in transfected cells
Source text: The assays employ HEK-293 cells that have been engineered to express the appropriate receptor. GloSensor-based detection of cAMP provides a read-out of receptor activation.
For PTHR1 activation and all the binding data, data represent mean±s.e.m from three independent measurements; For PTHR2 activation, data represent mean±s.e.m from four independent measurements. Curves were fit to the data using a four-parameter sigmoidal dose-response equation.
For cAMP dose-response assays, monolayers of confluent HEK 293 cells were pre-incubated with buffer containing d-luciferin (0.5 mM) in 96 well plates at room temperature until a stable baseline level of luminescence was established (30 min). Varying concentrations of agonist were then added, and the time course of luminescence response was recorded using a Perkin Elmer plate reader following α/β-peptide addition.

CC[C@H](C)[C@H](NC(=O)[C@H](CCC(=O)O)NC(=O)[C@H](CO)NC(=O)[C@@H](NC(=O)[C@H](CN)CO)C(C)C)C(=O)N[C@@H](CCC(N)=O)C(=O)N[C@@H](CC(C)C)C(=O)N[C@@H](CCSC)C(=O)N[C@@H](Cc1c[nH]cn1)C(=O)N[C@@H](CC(N)=O)C(=O)N[C@@H](CC(C)C)C(=O)NCC(=O)N[C@@H](CCCCN)C(=O)N[C@@H](Cc1c[nH]cn1)C(=O)N[C@@H](CC(C)C)C(=O)N[C@@H](CC(N)=O)C(=O)N[C@@H](CO)C(=O)N[C@@H](CCSC)C(=O)N[C@@H](CCC(=O)O)C(=O)N[C@@H](CCCNC(=N)N)C(=O)N[C@H](C(=O)N[C@@H](CCC(=O)O)C(=O)N[C@@H](Cc1c[nH]c2ccccc12)C(=O)N[C@@H](CC(C)C)C(=O)N[C@@H](CCCNC(=N)N)C(=O)N[C@@H](CCCCN)C(=O)N[C@@H](CCCCN)C(=O)N[C@@H](CC(C)C)C(=O)N[C@@H](CCC(N)=O)C(=O)N[C@@H](CC(=O)O)C(=O)N[C@H](C(=O)N[C@@H](Cc1c[nH]cn1)C(=O)N[C@@H](CC(N)=O)C(=O)N[C@@H](Cc1ccccc1)C(N)=O)C(C)C)C(C)C [SEQ. ID. NO: 30] (X11-VSEIQLMHNLGKHLNSMERVEWLRKKLQDVHNF-NH2) was tested. Which EC50 (Table 8, hPTHR1, read-out: PTHR1 EC50) did it give?
Its EC50 is 1.55 ± 0.3 nM.

With CC[C@H](C)[C@@H](CC(=O)N[C@@H](CCC(N)=O)C(=O)N[C@@H](CC(C)C)C(=O)N[C@@H](CCSC)C(=O)N[C@@H](Cc1cnc[nH]1)C(=O)N[C@@H](CC(N)=O)C(=O)N[C@@H](CC(C)C)C(=O)NCC(=O)N[C@@H](CCCCN)C(=O)N[C@@H](Cc1cnc[nH]1)C(=O)N[C@@H](CC(C)C)C(=O)N[C@@H](CC(N)=O)C(=O)N[C@@H](CO)C(=O)N[C@@H](CCSC)C(=O)N[C@@H](CCC(=O)O)C(=O)N[C@@H](CCCNC(=N)N)C(=O)N[C@H](C(=O)N[C@@H](CCC(=O)O)C(=O)N[C@@H](Cc1c[nH]c2ccccc12)C(=O)N[C@@H](CC(C)C)C(=O)N[C@@H](CCCNC(=N)N)C(=O)N[C@@H](CCCCN)C(=O)N[C@@H](CCCCN)C(=O)N[C@@H](CC(C)C)C(=O)N[C@@H](CCC(N)=O)C(=O)N[C@@H](CC(=O)O)C(=O)N[C@H](C(=O)N[C@@H](Cc1cnc[nH]1)C(=O)N[C@@H](CC(N)=O)C(=O)N[C@@H](Cc1ccccc1)C(N)=O)C(C)C)C(C)C)NC(=O)[C@H](CCC(=O)O)NC(=O)[C@H](CO)NC(=O)[C@@H](NC(=O)[C@@H](N)CO)C(C)C [SEQ. ID. NO: 42] as the compound, how does the EC50 (HEK-293 cells, GloSensor cAMP, read-out: EC50 (nM) of PTHR1 Activation) read?
Its EC50 is 3.4 ± 1.22 nM.
